From US20080045537A1, “Chemical Compounds” (priority 2004, published 2008)

tested on: HIV-1 IIIB (T-tropic, CXCR4 utilizing); experiment: HOS HIV-1 infectivity assay; format: cell-based; conditions: Human immunodeficiency virus 1, IIIB; as determined by the infectivity assay; strain not stated in Table 2; read-out: Activity Level
Description: Compounds were profiled against two HIV-1 viruses, the M-tropic (CCR5 utilizing) Ba-L strain and the T-tropic (CXCR4 utilizing) IIIB strain. Both viruses were propagated in human peripheral blood lymphocytes. Compounds were tested for there ability to block infection of the HOS cell line (expressing hCXCR4/hCCR5/hCD4/pHIV-LTR-luciferase) by either HIV-1 Ba-L or HIV-1 IIIB. Compound cytotoxicity was also examined in the absence of virus addition.
HOS cells (expressing hCXCR4/hCCR5/hCD4/pHIV-LTR-luciferase) were harvested and diluted in Dulbeccos modified Eagles media supplemented with 2% FCS and non-essential amino acid to a concentration of 60,000 cells/ml. The cells were plated into 96-well plates (100 ul per well) and the plates were placed in a tissue culture incubator (37° C.; 5% CO2/95% air) for a period of 24 h.
Subsequently, 50 ul of the desired drug solution (4 times the final concentration) was added to each well and the plates were returned to the tissue culture incubator (37° C.; 5% CO2/95% air) for 1 h. Following this incubation 50 ul of diluted virus was added to each well (approximately 2 million RLU per well of virus). The plates were returned to the tissue culture incubator (37° C.; 5% CO2/95% air) and were incubated for a further 96 h.
Following this incubation the endpoint for the virally infected cultures was quantified following addition of Steady-Glo Luciferase assay system reagent (Promega, Madison, Wis.). Cell viability or non-infected cultures was measured using a CellTiter-Glo luminescent cell viability assay system (Promega, Madison, Wis.). All luminescent readouts are performed on a Topcount luminescence detector (Packard, Meridien, Conn.).

Row | IC50 [nM] | Structure (SMILES)
1 | < 100 | CC(C)N1CCN(c2cccc3[nH]c(CN(C)C4CCCc5cccnc54)nc23)CC1 (stereo not shown) [Example 111, N-Methyl-N-({4-[4-(1-methylethyl)-1piperazinyl]-1H-benzimidazol-2-yl}methyl)-5,6,7,8-tetrahydro-8-quinolinamine]
2 | < 100 | CC(C)N(Cc1nc2c(N3CCN(C)CC3)cccc2[nH]1)C1CCCc2cccnc21 (stereo not shown) [Example 112, N-(1-Methylethyl)-N-{[4-(4-methyl-1-piperazinyl)-1H-benzimidazol-2-yl]methyl}-5,6,7,8-tetrahydro-8-quinolinamine]
3 | < 100 | CC(C)N1CCN(c2cccc3[nH]c(CN(C(C)C)C4CCCc5cccnc54)nc23)CC1 (stereo not shown) [Example 113, N-(1-methylethyl)-N-({4-[4-(1-methylethyl)-piperazinyl]-1H-benzimidazol-2-yl}methyl)-5,6,7,8-tetrahydro-8-quinolinamine]
4 | < 100 | CN1CCN(c2cccc3nc(C(C)(C)NC4CCCc5cccnc54)[nH]c23)CC1 (stereo not shown) [Example 114, N-{1-methyl-1-[4-(4-methyl-1-piperazinyl)-1H-benzimidazol-2-yl]ethyl}-5,6,7,8-tetrahydro-8-quinolinamine]
5 | < 100 | CN1CCN(c2cccc3nc(C(C)(C)N(C)C4CCCc5cccnc54)[nH]c23)CC1 (stereo not shown) [Example 115, N-Methyl-N-{1-methyl-1-[4-(4-methyl-1-piperazinyl)-1H-benzimidazol-2-yl]ethyl}-5,6,7,8-tetrahydro-8-quinolinamine]
6 | < 100 | CN(Cc1nc2c(N3CCN(C(=O)CN)CC3)cccc2[nH]1)C1CCCc2cccnc21 (stereo not shown) [Example 116, N-({4-[4-(Aminoacetyl)-1-piperazinyl]-1H-benzimidazol-2-yl}methyl)-N-methyl-5,6,7,8-tetrahydro-8-quinolinamine]
7 | 100 to 500 | CN(Cc1nc2c(N3CCN(C(=O)c4ccccn4)CC3)cccc2[nH]1)C1CCCc2cccnc21 (stereo not shown) [Example 117, N-Methyl-N-({4-[4-(2-pyridinylcarbonyl)-1-piperazinyl]-1H-benzimidazol-2-yl}methyl)-5,6,7,8-tetrahydro-8-quinolinamine]
8 | < 100 | CN1CCN(c2cccc3nc(CN(C)[C@@H]4CCCc5cccnc54)[nH]c23)CC1 [Example 133A, (8R)—N-Methyl-N-{[4-(4-methyl-1-piperazinyl)-1H-benzimidazol-2-yl]methyl}-5,6,7,8-tetrahydro-8-quinolinamine]
9 | < 100 | CN1CCN(c2cccc3nc(CN(C)[C@H]4CCCc5cccnc54)[nH]c23)CC1 [Example 133B, (8S)—N-Methyl-N-{[4-(4-methyl-1-piperazinyl)-1H-benzimidazol-2-yl]methyl}-5,6,7,8-tetrahydro-8-quinolinamine]
10 | < 100 | CCN(Cc1nc2cccc(N3CCN(C)CC3)c2[nH]1)[C@@H]1CCCc2cccnc21 [Example 134, (8R)—N-Ethyl-N-{[4-(4-methyl-1-piperazinyl)-1H-benzimidazol-2-yl]methyl}-5,6,7,8-tetrahydro-8-quinolinamine]
11 | < 100 | CCN(Cc1nc2cccc(N3CCN(C)CC3)c2[nH]1)[C@H]1CCCc2cccnc21 [Example 135, (8S)—N-Ethyl-N-{[4-(4-methyl-1-piperazinyl)-1H-benzimidazol-2-yl]methyl}-5,6,7,8-tetrahydro-8-quinolinamine]
12 | < 100 | CCCN(Cc1nc2cccc(N3CCN(C)CC3)c2[nH]1)[C@@H]1CCCc2cccnc21 [Example 136, (8R)—N-{[4-(4-methyl-1-piperazinyl)-1H-benzimidazol-2-yl]methyl}-N-propyl-5,6,7,8-tetrahydro-8-quinolinamine]
13 | < 100 | CCCN(Cc1nc2cccc(N3CCN(C)CC3)c2[nH]1)[C@H]1CCCc2cccnc21 [Example 137, (8S)—N-{[4-(4-methyl-1-piperazinyl)-1H-benzimidazol-2-yl]methyl}-N-propyl-5,6,7,8-tetrahydro-8-quinolinamine]
14 | < 100 | CC(C)N(Cc1nc2cccc(N3CCN(C)CC3)c2[nH]1)[C@H]1CCCc2cccnc21 [Example 138, (8S)—N-(1-Methylethyl)-N-{[4-(4-methyl-1-piperazinyl)-1H-benzimidazol-2-yl]methyl}-5,6,7,8-tetrahydro-8-quinolinamine]

More lines, now with the values behind:

Row | Structure (SMILES) | IC50 [nM]
15 | CN(Cc1nc2c(NC(=O)CCN3CCCCC3)cccc2[nH]1)C1CCCc2cccnc21 (stereo not shown) [Example 100, N-(2-{[methyl(5,6,7,8-tetrahydro-8-quinolinyl)amino]methyl}-1H-benzimidazol-4-yl)-3-(1-piperidinyl)propanamide] | 100 to 500
16 | CN(Cc1nc2c(-n3ccnc3)cccc2[nH]1)C1CCCc2cccnc21 (stereo not shown) [Example 101, N-{[4-(1H-Imidazol-1-yl)-1H-benzimidazol-2-yl]methyl}-N-methyl-5,6,7,8-tetrahydro-8-quinolinamine] | 100 to 500
17 | CN(Cc1nc2c(NC(=O)c3cccnc3)cccc2[nH]1)C1CCCc2cccnc21 (stereo not shown) [Example 102, N-(2-{[Methyl(5,6,7,8-tetrahydro-8-quinolinyl)amino]methyl}-1H-benzimidazol-4-yl)-3-pyridinecarboxamide] | 100 to 500
18 | CN(Cc1nc2c(NC(=O)c3ccncc3)cccc2[nH]1)C1CCCc2cccnc21 (stereo not shown) [Example 103, N-(2-{[Methyl(5,6,7,8-tetrahydro-8-quinolinyl)amino]methyl}-1H-benzimidazol-4-yl)-4-pyridinecarboxamide] | 500 to 10000
19 | CN(Cc1nc2c(NC(=O)[C@@H]3CCCN3C)cccc2[nH]1)C1CCCc2cccnc21 (stereo partly drawn) [Example 104, 1-Methyl-N-(2-{[methyl(5,6,7,8-tetrahydro-8-quinolinyl)amino]methyl}-1H-benzimidazol-4-yl)-L-prolinamide] | 100 to 500
20 | CN(Cc1nc2c(NC(=O)C(C)(C)N)cccc2[nH]1)C1CCCc2cccnc21 (stereo not shown) [Example 105, 2-Methyl-N-1-(2-{[methyl(5,6,7,8-tetrahydro-8-quinolinyl)amino]methyl}-1H-benzimidazol-4-yl)alaninamide] | 100 to 500
21 | CN(C)CCCNc1cccc2[nH]c(CN(C)C3CCCc4cccnc43)nc12 (stereo not shown) [Example 106, [3-(Dimethylamino)propyl](2-{[methyl(5,6,7,8-tetrahydro-8-quinolinyl)amino]methyl}-1H-benzimidazol-4-yl)amine] | 100 to 500
22 | CN(C)CCNc1cccc2[nH]c(CN(C)C3CCCc4cccnc43)nc12 (stereo not shown) [Example 107, [2-(Dimethylamino)ethyl](2-{[methyl(5,6,7,8-tetrahydro-8-quinolinyl)amino]methyl}-1H-benzimidazol-4-yl)amine] | < 100
23 | CNCCN(C)c1cccc2[nH]c(CN(C)C3CCCc4cccnc43)nc12 (stereo not shown) [Example 108, Methyl[2-(methylamino)ethyl](2-{[methyl(5,6,7,8-tetrahydro-8-quinolinyl)amino]methyl}-1H-benzimidazol-4-yl)amine] | < 100
24 | CN(C)CCN(C)c1cccc2[nH]c(CN(C)C3CCCc4cccnc43)nc12 (stereo not shown) [Example 109, [2-(Dimethylamino)ethyl]methyl(2-{[methyl(5,6,7,8-tetrahydro-8-quinolinyl)amino]methyl}-1H-benzimidazol-4-yl)amine] | < 100
25 | CC(=O)N1CCN(c2cccc3[nH]c(CN(C)C4CCCc5cccnc54)nc23)CC1 (stereo not shown) [Example 110, N-{[4-(4-Acetyl-1-piperazinyl)-1H-benzimidazol-2-yl]methyl}-N-methyl-5,6,7,8-tetrahydro-8-quinolinamine] | 100 to 500
